Laboratory results: patent publication US20250059182A1, “SOS1 INHIBITORS” (Mirati Therapeutics, Inc., priority 2021, published 2025)

Key:
[1] = target: T1, recombinant human SOS1 polypeptide (amino acids 560-1049) (Homo sapiens, UniProt Q07889); test: HTRF displacement assay: inhibition of labeled tracer binding to SOS1; details: Table A, Morrison equation for competitive binding
T1 construct: corresponding to amino acids 560-1049, expressed in E. Coli; made in house; host or cells: E. coli
T1 sequence (Q07889 560-1049): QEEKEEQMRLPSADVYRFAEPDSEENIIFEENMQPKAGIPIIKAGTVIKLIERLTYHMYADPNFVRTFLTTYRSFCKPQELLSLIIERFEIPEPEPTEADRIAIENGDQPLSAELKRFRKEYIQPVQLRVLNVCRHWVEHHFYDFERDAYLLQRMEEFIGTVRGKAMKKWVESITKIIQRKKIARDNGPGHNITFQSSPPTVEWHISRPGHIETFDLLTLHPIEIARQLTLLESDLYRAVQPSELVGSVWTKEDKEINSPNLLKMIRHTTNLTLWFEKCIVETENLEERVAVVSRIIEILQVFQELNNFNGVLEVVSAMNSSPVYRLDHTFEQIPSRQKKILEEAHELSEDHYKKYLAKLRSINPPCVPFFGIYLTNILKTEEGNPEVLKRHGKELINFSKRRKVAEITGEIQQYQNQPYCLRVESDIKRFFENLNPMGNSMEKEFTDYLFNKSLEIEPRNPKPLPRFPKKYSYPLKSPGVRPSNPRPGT

pERK in MKN1 cells = test: pERK inhibition, In-Cell Western (LI-COR Odyssey), MKN1 cells; assay type: cell-based; details: Homo sapiens, MKN-1, Table B; MKN1 or H358 cells (table does not say which); 0.5-1 hour incubation; read-out: IC50 (nM), pERK inhibition
In short: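 MKN1 cells were exposed for about 0.5–1 h at 37 °C to nine 3-fold dilutions starting at 10 µM. Cells were then fixed in formaldehyde, permeabilised with methanol, and immunostained for pERK and GAPDH with near-infrared secondary antibodies. GAPDH-normalised pERK signal relative to vehicle gave % inhibition, from which IC50 was fitted.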

SMILES	Ki [1]	IC50 (pERK in MKN1 cells)
CCN1CC2(C1)CN(c1cc3c(N[C@H](C)c4cccc(C(F)(F)F)c4F)nnc(C)c3cn1)C2 [Example 1-27, (R)-7-(6-ethyl-2,6-diazaspiro[3.3]heptan-2-yl)-N-(1-(2-fluoro-3-(trifluoromethyl)phenyl)ethyl)-4-methylpyrido[3,4-d]pyridazin-1-amine]	0.27 nM	18.6 nM
Cc1c([C@@H](C)Nc2nnc(C)c3cnc(N4CC5(CN(C)C5)C4)cc23)cccc1C(F)(F)F [Example 1-32, (R)-4-methyl-N-(1-(2-methyl-3-(trifluoromethyl)phenyl)ethyl)-7-(6-methyl-2,6-diazaspiro[3.3]heptan-2-yl)pyrido[3,4-d]pyridazin-1-amine]	0.163 nM	32.3 nM
Cc1c(C#N)cccc1[C@@H](C)Nc1nnc(C)c2cnc(N3CCN(C4CC4)CC3)cc12 [Example 1-33, (R)-3-(1-((7-(4-cyclopropylpiperazin-1-yl)-4-methylpyrido[3,4-d]pyridazin-1-yl)amino)ethyl)-2-methylbenzonitrile]	1.87 nM	87.8 nM
Cc1c(C#N)cccc1[C@@H](C)Nc1nnc(C)c2cnc(N3C[C@@H]4C[C@H]3CN4C)cc12 [Example 1-34, 2-methyl-3-((R)-1-((4-methyl-7-((1S,4S)-5-methyl-2,5-diazabicyclo[2.2.1]heptan-2-yl)pyrido[3,4-d]pyridazin-1-yl)amino)ethyl)benzonitrile]	2.25 nM	49.2 nM
Cc1c(C#N)cccc1[C@@H](C)Nc1nnc(C)c2cnc(N3C[C@H]4C[C@@H]3CN4C)cc12 [Example 1-35, 2-methyl-3-((R)-1-((4-methyl-7-((1R,4R)-5-methyl-2,5-diazabicyclo[2.2.1]heptan-2-yl)pyrido[3,4-d]pyridazin-1-yl)amino)ethyl)benzonitrile]	1.19 nM	18.4 nM
CCN1C[C@@H]2C[C@H]1CN2c1cc2c(N[C@H](C)c3cccc(C#N)c3C)nnc(C)c2cn1 [Example 1-36, 3-((R)-1-((7-((1S,4S)-5-ethyl-2,5-diazabicyclo[2.2.1]heptan-2-yl)-4-methylpyrido[3,4-d]pyridazin-1-yl)amino)ethyl)-2-methylbenzonitrile]	3.43 nM	75.5 nM
CCN1C[C@H]2C[C@@H]1CN2c1cc2c(N[C@H](C)c3cccc(C#N)c3C)nnc(C)c2cn1 [Example 1-37, 3-((R)-1-((7-((1R,4R)-5-ethyl-2,5-diazabicyclo[2.2.1]heptan-2-yl)-4-methylpyrido[3,4-d]pyridazin-1-yl)amino)ethyl)-2-methylbenzonitrile]	1.61 nM	19.7 nM
CCN1CC[C@H](Nc2cc3c(N[C@H](C)c4cccc(C#N)c4C)nnc(C)c3cn2)C1 [Example 1-38, 3-((R)-1-((7-(((S)-1-ethylpyrrolidin-3-yl)amino)-4-methylpyrido[3,4-d]pyridazin-1-yl)amino)ethyl)-2-methylbenzonitrile]	5.6 nM	221 nM
CCN1CC[C@@H](Nc2cc3c(N[C@H](C)c4cccc(C#N)c4C)nnc(C)c3cn2)C1 [Example 1-39, 3-((R)-1-((7-(((R)-1-ethylpyrrolidin-3-yl)amino)-4-methylpyrido[3,4-d]pyridazin-1-yl)amino)ethyl)-2-methylbenzonitrile]	4 nM	126 nM
Cc1c(C#N)cccc1[C@@H](C)Nc1nnc(C)c2cnc(N(C)C3CCN(C)CC3)cc12 [Example 1-40, (R)-2-methyl-3-(1-((4-methyl-7-(methyl(1-methylpiperidin-4-yl)amino)pyrido[3,4-d]pyridazin-1-yl)amino)ethyl)benzonitrile]	0.805 nM	45.4 nM
Cc1c(C#N)cccc1[C@@H](C)Nc1nnc(C)c2cnc(NC3CCN(C)CC3)cc12 [Example 1-41, (R)-2-methyl-3-(1-((4-methyl-7-((1-methylpiperidin-4-yl)amino)pyrido[3,4-d]pyridazin-1-yl)amino)ethyl)benzonitrile]	4.49 nM	272 nM
